# Like-named read-outs stand apart in the source and are kept apart here.
# Legend:
# [1] = set-up: method as in data on file, FPD 1055; conditions: ref data on file, FPD 1055; cited from earlier work
# [2] = mice; cited from earlier work
# [3] = dogs, cited from earlier work
# [4] = system: human colon and small-cell lung cancer xenografts; set-up: method as in Mistry et al, 2002; Lewis et al, 2003; conditions: ref Mistry et al, 2002, Lewis et al, 2003; cited from earlier work
# [5] = system: rats; conditions: 14-day oral administration schedule; cited from earlier work
# [6] = Plasma pharmacokinetics in patients (LC-MS, noncompartmental analysis); assay type: in vivo, human; conditions: for AUC(0-inf) / AUC(0-t) / Cmax / Tmax / half-life: plasma, oral
# Procedure: For PK analysis, 58 blood samples (∼5 ml each) were obtained from an indwelling intravenous cannula and collected in vials containing lithium heparin as anticoagulant. The samples were taken immediately before dosing, 30 min and 1, 1.5, 2, 3, 4, 6, 8 and 10 h after administration of the drug on days 1 and 4 (or 5) of the first and second courses. Additional samples were taken immediately prior to dosing on days 2, 3, 4 and 5, and 24, 48, 72, 144 and 312 h after the dose administration on day 5, both in the first and second cycles. From the third cycle onwards, PK samples were taken prior to dosing on day 5 to measure the potential accumulation of XR11576.
# All samples were centrifuged immediately after sampling at 3000 r.p.m. for 10 min at 4°C and the plasma was stored at −20°C or lower in polypropylene tubes in the dark until analysis. A total of four urine samples were also collected over a 24-h period; 0–4, 4–8, 8–12 and 12–24 h post-dosing on day 1 of the first cycle only. Of the total amount collected, a measured quantity of 10 ml was drawn off and stored at −80°C until analysis. Concentrations of XR11576 in plasma were determined according to a validated liquid chromatography-mass spectrometry detection method with liquid–liquid extraction at the Drug Metabolism and Pharmacokinetics Department of Quintiles Limited (Internal Report at Quintiles). The lower limit of quantitation was 5 ng ml^−1.
# The apparent terminal half-life (T1/2(z)) of XR11576 was calculated as ln 2/k, where k is the terminal elimination rate constant (expressed in h^−1). The peak plasma concentrations (Cmax) and the time to peak plasma concentration (Tmax) were determined from the experimental values. The areas under the plasma concentration–time curve (AUC) of XR11576 were estimated using the experimental values (trapezoidal rule) with extrapolation to infinity (AUC0–∞) using the apparent terminal rate constant, defined as the slope of the final three to four data points of the log-linear concentration–time plot. The total body clearance (CL) was calculated as the ratio between the administered dose and the AUC0–∞. The extent of accumulation (R0) in plasma was calculated from AUC0–24 h (days 4 or 5)/AUC0–24 h (day 1). The fraction of the administered dose (Fe) excreted in urine and the cumulative amount of XR11576 excreted in urine (Ae) was determined. PK data analysis was carried out using a noncompartmental analysis approach with the aid of WinNonlin Version Pron4.0.1 (Pharsight, Cary NC 27511).
# A nonlinear power model was used to assess dose proportionality separately for each day during cycles 1 and 2. Statistical analyses were performed using SAS version 8.1.
# [7] = human, 30 mg day^−1, first treatment course, mean, N=3
# [8] = human, 60 mg day^−1, first treatment course, mean, N=4
# [9] = human, 120 mg day^−1, first treatment course, mean, N=8
# [10] = human, 150 mg day^−1, first treatment course, mean, N=3
# [11] = human, 180 mg day^−1, first treatment course, mean, N=3
structure (smiles),measurement,setting,value
"COc1cccc2c1ccc1nc3cccc(C(=O)N[C@H](C)CN(C)C)c3nc12 [XR11576, 4-methoxy-benzo[a]phenazine-11-carboxylic acid (2-dimethulamino-1-R-methyl-ethyl)-amide]",cardiac toxicity,[1],no cardiac toxicity was detected
same,effect of food on bioavailability,[2],food reduced the bioavailability
same,oral availability,[2],72±25%
same,reduction in the systemic exposure,[3]; repeated daily oral doses,approximately 60%
same,increase of systemic exposure with dose,[3]; single oral administration,more than dose-proportionally
same,activity against xenografts in vivo,[4],highly active
same,maximum tolerated dose (MTD),[5],150 mg m^−2
same,R0 (ratio of accumulation),"[6]; 30 mg day^−1, first treatment course, mean, N=3",1.56
same,R0 (ratio of accumulation),"[6]; 60 mg day^−1, first treatment course, mean, N=4",1.87
same,R0 (ratio of accumulation),"[6]; 120 mg day^−1, first treatment course, mean, N=8",1.93
same,R0 (ratio of accumulation),"[6]; 150 mg day^−1, first treatment course, mean, N=3",1.53
same,R0 (ratio of accumulation),"[6]; 180 mg day^−1, first treatment course, mean, N=3",1.34
same,increase of systemic exposure with dose,[6]; 30–180 mg day^−1,greater than dose-proportional
same,time of maximum peak drug levels post dose,[6]; all patients,3.69 ± 0.79 h
same,accumulation in plasma: exposure higher by the last day of dosing,[6]; days 1–5 dosing,approximately two-fold
same,interpatient coefficients of variation in AUC values,"[6]; human, in vivo",> 100%
same,relationship between apparent CL/F and BSA,"[6]; human, in vivo",no relationship
same,AUC(0-inf),[6]; [7],50 ng·h/mL
same,AUC(0-t),[6]; [7],36.2 ng·h/mL
same,Cmax,[6]; [7],8.07 ng/mL
same,Tmax,[6]; [7],2.5 h
same,half-life,"[6]; human, 30 mg day^−1, first treatment course, mean, N=3, read-out: T1/2 (converted)",5.53 h
same,AUC(0-inf),[6]; [8],517 ng·h/mL
same,AUC(0-t),[6]; [8],178 ng·h/mL
same,Cmax,[6]; [8],21.7 ng/mL
same,Tmax,[6]; [8],3.5 h
same,half-life,"[6]; human, 60 mg day^−1, first treatment course, mean, N=4, read-out: T1/2 (converted)",68.8 h
same,AUC(0-inf),[6]; [9],535 ng·h/mL
same,AUC(0-t),[6]; [9],329 ng·h/mL
same,Cmax,[6]; [9],41.1 ng/mL
same,Tmax,[6]; [9],3.75 h
same,half-life,"[6]; human, 120 mg day^−1, first treatment course, mean, N=8, read-out: T1/2 (converted)",31.2 h
same,AUC(0-inf),[6]; [10],2240 ng·h/mL
same,AUC(0-t),[6]; [10],1710 ng·h/mL
same,Cmax,[6]; [10],167 ng/mL
same,Tmax,[6]; [10],4 h
same,AUC(0-inf),[6]; [11],1810 ng·h/mL
same,AUC(0-t),[6]; [11],970 ng·h/mL
same,Cmax,[6]; [11],112 ng/mL
same,Tmax,[6]; [11],4.67 h
same,half-life,"[6]; human, all dose levels, read-out: mean terminal half-life",≤ 70 h

# Reference: article PMC2409936, “Phase I and pharmacokinetic study of XR11576, an oral topoisomerase I and II inhibitor, administered on days 1–5 of a 3-weekly cycle in patients with advanced solid tumours” (British Journal of Cancer, 2004)
